Test systems include OVCAR-4 ovarian; M14 melanoma; MOLT-4 leukemia; OVCAR-5 ovarian; KM12 colon; MDA-MB-435; SW-620 colon; OVCAR-8 ovarian; NCI-H23 lung; SK-MEL-28 melanoma.
Holding throughout (test): DTP human tumour cell line panel, 48 h

Structures are written as SMILES.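 Values below derive from 48-hour exposures of cells grown in 96-well plates, with endpoints linearly interpolated between the two concentrations bracketing the appropriate inhibition level. GI50 is the concentration that inhibits growth by half. TGI is the concentration that stops growth completely.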

As for `O=c1[nH]c(NCc2ccc(Cl)cc2)nc2nc[nH]c12`, the total growth inhibition concentration (TGI) in the assay on OVCAR-4 ovarian, with M14 melanoma, with MOLT-4 leukemia, in the assay on OVCAR-5 ovarian, in the assay with KM12 colon and with MDA-MB-435 was more than 100 µM throughout. In addition, the concentration for total growth inhibition (TGI) in the assay on SW-620 colon, in the assay on OVCAR-8 ovarian and in the assay on NCI-H23 lung was more than 100 µM each time.

`C(#CP(c1ccccc1)c1ccccc1)P(C#CP(c1ccccc1)c1ccccc1)c1ccccc1`: the TGI is more than 100 µM with OVCAR-4 ovarian; 13 µM with M14 melanoma; more than 100 µM in the assay on MOLT-4 leukemia; more than 100 µM in the assay with OVCAR-5 ovarian; more than 100 µM with SK-MEL-28 melanoma; more than 100 µM in the assay with KM12 colon. For the same molecule, the TGI in the assay with MDA-MB-435, with SW-620 colon and in the assay with OVCAR-8 ovarian was more than 100 µM throughout.

For the molecule `O=C(O)/C=C/c1ccc2c(c1)CC1(Cc3ccccc3C1)C2`, the total growth inhibition concentration (TGI) with OVCAR-4 ovarian, in the assay with M14 melanoma, in the assay with MOLT-4 leukemia, in the assay on OVCAR-5 ovarian, in the assay on KM12 colon and in the assay with MDA-MB-435 was more than 100 µM in each case. In addition, the TGI in the assay on OVCAR-8 ovarian and in the assay with NCI-H23 lung was more than 100 µM each time.

On to `O=C(O)/C=C/c1c[nH]c(=O)[nH]c1=O`, for which the GI50 in the assay with OVCAR-4 ovarian and in the assay with OVCAR-5 ovarian was more than 500 µM throughout. The TGI in the assay with OVCAR-4 ovarian is more than 500 µM; in the assay with MOLT-4 leukemia, more than 281 µM; with OVCAR-5 ovarian, more than 500 µM; in the assay on SK-MEL-28 melanoma, more than 500 µM; in the assay on KM12 colon it was more than 500 µM; with SW-620 colon, more than 500 µM. The total growth inhibition concentration (TGI) in the assay with OVCAR-8 ovarian and in the assay on NCI-H23 lung was more than 500 µM throughout.

For `C=C1C(=O)O[C@H]2C[C@@H]1[C@@H](O)[C@H](O)[C@@H](C)CCCC(C)=CCC[C@@]2(C)O`, the total growth inhibition concentration (TGI) is 83.9 µM in the assay with OVCAR-4 ovarian; 29.8 µM with M14 melanoma; 54.6 µM in the assay on MOLT-4 leukemia; 51.3 µM in the assay on OVCAR-5 ovarian; 77.7 µM with SK-MEL-28 melanoma; more than 100 µM in the assay on KM12 colon. Further, the concentration for total growth inhibition (TGI) is more than 100 µM in the assay on MDA-MB-435 and 42.7 µM in the assay with NCI-H23 lung.

Take `COc1cc(-c2c3c(cc4c2OCO4)[C@@H](Nc2ccc(-c4ccc(-c5ccc(N[C@@H]6c7cc8c(cc7C(c7cc(OC)c(O)c(OC)c7)[C@H]7C(=O)OC[C@H]67)OCO8)cc5)cc4)cc2)[C@H]2COC(=O)[C@@H]2C3)cc(OC)c1O` (stereo partly drawn): the total growth inhibition concentration (TGI) in the assay with M14 melanoma amounted to 4.11 µM; with OVCAR-5 ovarian, 17 µM; with SK-MEL-28 melanoma it was 15.7 µM; with KM12 colon, 4.63 µM; with MDA-MB-435 it was 3.86 µM; in the assay on SW-620 colon, 10.8 µM. In addition, the concentration for total growth inhibition (TGI) in the assay on OVCAR-8 ovarian was 3.77 µM; in the assay on NCI-H23 lung it was 20.7 µM.

On to `CC1OC2OC3C(OCC(O)C3O)OC(=O)[C@]34CCC(C)(C)CC3C3=CCC5[C@@]6(C)C[C@H](O)[C@H](OC7OC(CO)C(O)C(O)C7OC7OCC(OC(=O)CC(C)(O)CC(=O)OC1C(O)C2O)C(O)C7O)[C@@](C)(CO)C6CC[C@@]5(C)[C@]3(C)CC4` (stereo partly drawn), for which the concentration for total growth inhibition (TGI) with M14 melanoma was 8.87 µM; with MOLT-4 leukemia, 23.1 µM; in the assay with OVCAR-5 ovarian it was 7 µM; with SK-MEL-28 melanoma it was 4.97 µM; with KM12 colon, 10.5 µM; with MDA-MB-435, 19.1 µM. Further, the TGI came out at 19 µM in the assay with SW-620 colon, 15.8 µM in the assay with OVCAR-8 ovarian and 10.1 µM with NCI-H23 lung.

Take `Clc1ccc(C[P+](c2ccccc2)(c2ccccc2)c2ccccc2)cc1Cl`: the TGI in the assay on OVCAR-4 ovarian is 19.5 µM; in the assay with M14 melanoma it was 12.5 µM; in the assay with OVCAR-5 ovarian it was 19.2 µM; in the assay on SK-MEL-28 melanoma, 11.4 µM; in the assay with KM12 colon, 11.3 µM; in the assay with SW-620 colon it was 12.7 µM. For the same molecule, the TGI is 12.4 µM with OVCAR-8 ovarian and 10.4 µM in the assay with NCI-H23 lung.

With `NC(Cc1ccc2nc3c4ccccc4c(=O)cc-3oc2c1)C(=O)O` (stereo not drawn), the TGI was more than 100 µM with OVCAR-4 ovarian; more than 100 µM in the assay with M14 melanoma; more than 100 µM in the assay with OVCAR-5 ovarian; more than 100 µM with SK-MEL-28 melanoma; more than 100 µM in the assay on KM12 colon; 32.3 µM with MDA-MB-435. In addition, the concentration for total growth inhibition (TGI) with SW-620 colon is more than 100 µM; in the assay on NCI-H23 lung, 65.1 µM.

For the molecule `C#CC(O)/C=C/CCCCCCC#CC/C=C\CC#CCCCCCCCCC(O)C#C` (stereo not drawn), the TGI in the assay on OVCAR-4 ovarian amounted to 15.7 µM; in the assay with OVCAR-5 ovarian, 27 µM; in the assay with SK-MEL-28 melanoma it was 13.1 µM; in the assay on KM12 colon, 11.5 µM; with MDA-MB-435 it was 7.43 µM; in the assay on SW-620 colon, 14.2 µM. Also, the TGI with OVCAR-8 ovarian was 5.11 µM; with NCI-H23 lung, 4.17 µM.

For the molecule `Cc1cc2nc3c(C#N)c4c(c(-c5ccc(Cl)cc5)n3c2cc1C)CCC4`, the TGI in the assay with OVCAR-4 ovarian is 97.1 µM; with M14 melanoma, 32.7 µM; in the assay on MOLT-4 leukemia, 57.5 µM; with SK-MEL-28 melanoma it was 50.3 µM; in the assay on KM12 colon, 47.8 µM; in the assay with MDA-MB-435, 54.8 µM. The TGI in the assay on SW-620 colon was more than 100 µM; in the assay with NCI-H23 lung, 35.4 µM.

As to `CCOC(=O)C1(C#N)CC1`, the TGI in the assay with OVCAR-4 ovarian, in the assay with M14 melanoma, in the assay on MOLT-4 leukemia, in the assay on OVCAR-5 ovarian, in the assay with SK-MEL-28 melanoma and with KM12 colon was more than 100 µM in each case. Also, the total growth inhibition concentration (TGI) with SW-620 colon, in the assay with OVCAR-8 ovarian and with NCI-H23 lung was more than 100 µM in each case.

Turning to `COc1ccc(-c2c(-c3ccccc3)c(C)nc3nc(SC)nc(SC)c23)cc1OC`, the TGI with M14 melanoma is more than 100 µM; in the assay with MOLT-4 leukemia, 71.3 µM; with OVCAR-5 ovarian, more than 100 µM; in the assay with SK-MEL-28 melanoma it was more than 100 µM; in the assay with KM12 colon, more than 100 µM; in the assay on MDA-MB-435, more than 100 µM. For the same molecule, the TGI with SW-620 colon and in the assay on NCI-H23 lung was more than 100 µM in each case.

In the case of `C/C(=N\Nc1nc2ccccc2s1)c1cc2ccccc2cn1`, the TGI was 62.2 µM in the assay with OVCAR-4 ovarian; 23.2 µM in the assay on M14 melanoma; 54.5 µM with OVCAR-5 ovarian; more than 100 µM with SK-MEL-28 melanoma; 94.4 µM with KM12 colon; 72.8 µM in the assay on MDA-MB-435. Besides, the TGI was more than 100 µM in the assay with SW-620 colon, 16.5 µM in the assay with OVCAR-8 ovarian and 18.1 µM in the assay on NCI-H23 lung.

With `NC(=S)N1N=C2c3ccccc3CC[C@H]2[C@@H]1c1ccc(Cl)cc1`, the TGI was more than 100 µM in the assay with OVCAR-4 ovarian; more than 100 µM in the assay on M14 melanoma; 89.8 µM in the assay on MOLT-4 leukemia; more than 100 µM in the assay with OVCAR-5 ovarian; more than 100 µM in the assay on SK-MEL-28 melanoma; more than 100 µM in the assay on KM12 colon. The values for the TGI with SW-620 colon, in the assay with OVCAR-8 ovarian and in the assay on NCI-H23 lung were more than 100 µM, more than 100 µM and 97.7 µM, respectively.

As usually defined, the TGI is the concentration at which net growth stops. A lower TGI goes with more potent growth arrest. For orientation: GI50 means the concentration that inhibits growth by half.

The values above are taken from PubChem BioAssay (NCI).
